91 compounds from a melting point compilation (Tetko et al.; mined from patent text by program, amines drawn as free bases though some values may be those of a salt) can be followed below.

A value given as a limit tells only on which side of the number the result lay.

In turn, `CCCCCCCCCC(=O)Nc1ccc(S(=O)(=O)Nc2nnc(C)s2)cc1` returned a melting point of 141 to 142 °C.

Consider `CC12CCC(=O)C=C1CCC1C2CCC2(C)C1CCC2(OC=O)C(=O)CCl` (stereo unspecified), for which the melting point amounted to 202 °C.

Turning to `CCc1ccc(-c2ccc3c(c2)C=C(C(=O)OC)CCS3(=O)=O)cc1`, the melting point was in the range of 173 to 176 °C.

`Cc1cccc(NC(=O)C2=C(O)c3ccc4ccccc4c3S(=O)(=O)N2)c1` had a melting point of 245 °C.

For the compound `COc1ccc(S(=O)(=O)Nc2cccnc2Nc2ccc(OC)nc2)cc1`, the melting point was 159 to 160 °C.

The compound `Nc1ccc(C(=O)c2ncco2)c(Cl)c1` gave a melting point of 92 to 94 °C.

`CN(C(=O)OC(C)(C)C)c1sc(-c2cccnc2)nc1Cl`: the melting point fell in the range of 119 to 122 °C.

The compound `Cc1cnc2[nH]cc(/C=C3\N=C(N4CCCCC4)NC3=O)c2c1` came in with a melting point of 320 to 321 °C.

`CC1(C)C=CC=CC1NCC1=NCCN1` (stereo unspecified): the melting point fell in the range of 80 to 82 °C.

`CCCC[C@H](NC(=O)[C@H](CCC(=O)O)NC(=O)OCc1ccccc1)C(=O)CSCc1ccco1` showed a melting point of 67 to 71 °C.

In turn, `CCCCCc1c(-c2ccc3c(Br)c(OCC#N)ccc3c2)oc2ccccc12` yielded a melting point of 111 to 113 °C.

Compound `COc1ccc2[nH]c(C(=O)N3CCC[C@H](C)C3)cc2c1` yielded a melting point of 189 to 192 °C.

For `CC(=O)NC(=O)CCCCBr`, the melting point was 88 to 90 °C.

Take `CC(C)(C)C(=O)CN1C(=O)C(NC(=O)Nc2cccc3ccccc23)CN(C2CCCCC2)c2ccccc21` (stereo unspecified): the melting point lay in the range of 200 to 203 °C.

Compound `OCCCN1CCC(c2ccccc2)(c2ccccc2)CC1` showed a melting point of 97 °C.

The compound `Cn1nc(-c2ccccc2SCc2ccccc2)oc1=O` yielded a melting point of 137 to 140 °C.

For the compound `CCOC(=O)CCC(=O)Oc1cccc(-c2cn3c(n2)sc2ccccc23)c1`, the melting point was 70 to 74 °C.

`CC(=O)Nc1c(-c2cccc(-n3c(N)nc4ccccc43)c2)cnn1C` returned a melting point of 135 to 137 °C.

Compound `O=C(O)CNC(=O)C(CS)Cc1ccc2c(c1)OCO2` (racemic) came in with a melting point of 94 °C.

`NC(=O)c1ccc(CCC[N@]2C[C@@H]2c2ccccc2)s1` came in with a melting point of 117 to 119 °C.

With `Cn1cncc1C(O)(c1ccc(Cl)cc1)c1ccc2c(c1)C(c1cccc(Cl)c1)=NCC(=O)N2` (stereo unspecified), the melting point came out at 200 °C.

Take `C=CC[C@H](C(N)=O)[C@@H](CC(C)C)C(=O)NC1C(=O)N(C)c2ccccc2-c2ccccc21` (stereo partly specified): the melting point fell in the range of 137 to 145 °C.

For `CC(=O)/C(=N/O[C@H]1CC[C@H](C(=O)N(C)C)CC1)C(=O)OC(C)(C)C`, the melting point was in the range of 109 to 110 °C.

Compound `O=C1CCN(C(=O)c2cc(C(F)(F)F)cc(C(F)(F)F)c2)C(Cc2ccccc2)C1` (stereo unspecified) displayed a melting point of 102 °C.

Compound `IC#CCOCc1cccnc1` registered a melting point of 109 to 110 °C.

In turn, `CCOC(=O)C=CC(=O)c1ccc(Oc2ccc(Cl)cc2)cc1` returned a melting point of 57 to 58 °C.

`CC(C(=O)O)c1ccc2c(c1)CCc1ccccc1S2` (stereo unspecified): the melting point fell in the range of 103 to 104 °C.

`FC(F)(F)CSc1nc2cc(Cl)ccc2[nH]1` returned a melting point of 127 to 129 °C.

Consider `COc1ccc(S(=O)(=O)C2(C(=O)NO)CCN(Cc3ccc(Cl)c(Cl)c3)CC2)cc1`, for which the melting point lay within 192 to 195 °C.

Compound `Cc1cc(CC#N)cc(Cc2nc3c(F)c(F)cc(F)c3s2)c1` showed a melting point of 110 to 113 °C.

In turn, `CC(C)[C@H](NC(=O)OCc1ccc2ccccc2n1)C(=O)N[C@@H](Cc1ccccc1)C[C@H](O)[C@H](Cc1ccccc1)NC(=O)OCc1cccnc1` gave a melting point of 141 to 143 °C.

`O=C1CCNC(C(O)c2ccccc2)C1` (stereo unspecified) gave a melting point of 124 to 126 °C.

Compound `CC(C)(O)c1ccc(-c2cnc3[nH]c(=O)n(CC4CCOCC4)c3n2)cn1` showed a melting point of 207 to 209 °C.

On to `COc1ccc(C(=O)N2CC3CC2C(=O)O3)cc1OC` (stereo unspecified), for which the melting point was found to be 132 °C.

For `O=C1NC(=S)SC1=Cc1ccc2c(c1)N(CCc1cccc(Cl)c1)C(=O)CO2`, the melting point fell in the range of 280 to 282 °C.

`O=c1c2c(Cc3cccs3)n[nH]c2c2cccnc2n1-c1ccccc1` showed a melting point of 282 to 284 °C.

As to `COc1ccc2nccc(CCC[C@@H]3CCN(CCC(F)c4ccccc4)C[C@@H]3C(=O)O)c2c1` (stereo partly specified), the melting point was 60 °C.

`Cc1cn(C2CC(O)C(COC(c3ccccc3)(c3ccccc3)c3ccccc3)O2)c(=O)[nH]c1=O` (stereo unspecified) showed a melting point of 107 to 110 °C.

Turning to `Cc1ccc(-c2nc(Cc3cc4cc(C=O)ccc4o3)c(C)o2)cc1`, the melting point fell in the range of 126 to 130 °C.

`CCON(C(=O)c1cn(C)nc1C(F)F)C(C)Cc1c(Cl)cc(Cl)cc1Cl` (stereo unspecified): the melting point lay within 111 to 114 °C.

In turn, `CC1(C)Oc2ccsc2C(NC(=O)c2cccnc2)C1O` (stereo unspecified) registered a melting point of 248 to 249 °C.

In turn, `C=CC(=O)OCCCCCCN(C)c1ccc(C=Cc2ccc(S(C)(=O)=O)cc2)cc1` came in with a melting point of 88 to 90 °C.

In the case of `C[C@]1(COC(=O)N2CCC(Oc3ccc(C(F)(F)F)cc3)CC2)Cn2cc([N+](=O)[O-])nc2O1`, the melting point was in the range of 165 to 166 °C.

In turn, `CCCOC(=O)C(C)NC(=O)C(CC(=O)O)NC(=O)C1CCCN1` (stereo unspecified) came in with a melting point of 233 to 235 °C.

`CCOC(=O)C(C#N)=Cc1cc(OC)c(OC)c2c1C=CCO2` gave a melting point of 104 to 108 °C.

Turning to `N#Cc1cccc(Cc2c(-c3ccc(OC(F)F)c(OC4CC4)c3)[nH]c3cn[nH]c(=O)c23)c1`, the melting point is 130 to 135 °C.

Compound `N#Cc1ccc(C(=O)N[C@@H](Cc2c[nH]c3ccccc23)C(=O)O)cc1` returned a melting point of 125 to 127 °C.

On to `N#CC(C#N)=Cc1ccccc1F`, for which the melting point lay within 117 to 118 °C.

With `CN(CCc1ccc(O)c(O)c1)C(=O)OCc1ccccc1`, the melting point lay within 105 to 106 °C.

`Nc1cc(Cl)c(F)cc1-c1cccc(Cl)c1` registered a melting point of 58 °C.

Turning to `CC(C)(C)OC(=O)C[C@@H]1C[C@@H](COS(C)(=O)=O)NC1=O`, the melting point was 114 to 116 °C.

For the compound `Cc1c(C=CC#N)cccc1[N+](=O)[O-]`, the melting point worked out at 136 °C.

The compound `Cc1ccc2c(c1)c1cc(-c3cc(F)cc(F)c3)c(=O)n(C)c1n2C` returned a melting point of 240 °C.

On to `Cn1c(=O)n(-c2ccccc2)c(=O)n1SC(Cl)(Cl)Cl`, for which the melting point is 154 °C.

In the case of `COc1ccn2nc(-c3ccccc3)c(-c3ccc(=O)n(C(C)C)n3)c2c1Br`, the melting point lay within 205 to 206 °C.

In turn, `CC(C)(C)NC(=O)c1ccc2ccccc2c1` returned a melting point of 155 to 159 °C.

As to `COc1cc(OC)nc(Sc2c([N+](=O)[O-])nc(C)n2C)n1`, the melting point is 228 to 230 °C.

`CC(C)(C)c1cc(C(=O)N2CCN(c3ccc(N)cc3)CC2)cc(C(C)(C)C)c1O`: the melting point lay in the range of 221 to 222 °C.

`CC(C)(O)Cn1c(Oc2ccc(-n3c4ncccc4n4ccnc34)cc2)nc2ccccc21` yielded a melting point of 208 to 211 °C.

Consider `OCc1cc2ccc3c4ccccc4ccc3c2o1`, for which the melting point was in the range of 125 to 126 °C.

`CC(=O)c1ccc(Cl)c(S(=O)(=O)Nc2ccccc2)c1` returned a melting point of 142 °C.

In turn, `CC(=O)NCc1ccc(C(C)N2CCN(c3ccc(F)cc3)CC2)cc1` (stereo unspecified) had a melting point of 128 to 130 °C.

Compound `CCc1nc(C)cn1-c1ccc2nc(NC(=O)c3ccc(C(C)(C)C)cc3)cn2n1` had a melting point of 220 to 221 °C.

For the compound `COc1cc(S(C)(=O)=O)c(C)cc1OCC(=O)NCC(O)COc1ccccc1` (stereo unspecified), the melting point lay in the range of 103 to 105 °C.

Compound `CC(C)N1C(=O)C(NC(=O)CCC2CCCCC2)N=C(N(C)C)c2ccccc21` (stereo unspecified) had a melting point of 209 to 210 °C.

Regarding `Cc1c(-c2ccc(O)cc2O)c(=O)oc2cc(O)ccc12`, the melting point was in the range of 282 to 283 °C.

As for `CCOC(=O)C(=O)Nc1c([N+](=O)[O-])sc2cc(OC)ccc12`, the melting point lay within 195 to 196 °C.

`CCOC(=O)CC(=O)c1cc(F)c(F)c(Br)c1F` had a melting point of 85 to 88 °C.

For `O=CCN1C(=O)c2ccccc2C1=O`, the melting point stood at 114 °C.

The compound `Cc1nc(-c2ccc(C=CC3CN4CCC3CC4)cc2)no1` (stereo unspecified) showed a melting point of 93 to 97 °C.

`CC(=O)Nc1ccc(-c2c[nH]c(=O)c(C)n2)cc1` displayed a melting point of more than 300 °C.

`Oc1ccc(CCN2CCC(Cc3nc4c(O)ncnc4n3Cc3ccc(F)cc3)CC2)cc1` returned a melting point of 216 °C.

The compound `CCC(=Nc1ccc2c(c1)C(=O)c1ccc(N=C(CC)N3CCOCC3)cc1C2=O)N1CCOCC1` came in with a melting point of 220 to 223 °C.

As to `CCCc1nc(S)nn1-c1ccccc1`, the melting point lay within 142 to 143 °C.

`COC(=O)c1ccc(S(C)(=O)=O)c(C(=O)NN)c1Cl` had a melting point of 85 to 95 °C.

On to `O=C1CCC(c2ccc(-n3cccc3)cc2)=NN1`, for which the melting point lay in the range of 222 to 223 °C.

The compound `Cc1cccc(N2CCOCC2)c1NC(N)=S` yielded a melting point of 199 °C.

`CCOc1ccc(C=[N+]([O-])C2CCCCC2)cc1` displayed a melting point of 124 °C.

Consider `CON1C=C2N=NC3=C(N2C1)N(c1ccccn1)CC(C)=C3`, for which the melting point lay in the range of 216 to 220 °C.

`CCC1(CCCCCN2CCN(c3ccccn3)CC2)C(=O)Nc2ccccc21` (stereo unspecified) yielded a melting point of 127 to 128 °C.

Consider `O=C(CCCOc1ccc2nc3[nH]c(=O)[nH]c3cc2c1)N1CCCCC1`, for which the melting point lay in the range of 284 to 286 °C.

Turning to `CCc1sc(N)nc1-c1cc(Br)no1`, the melting point was 151 to 152 °C.

For `OC[C@@H]1Cc2cc3ccccc3n2C[C@H]1CO` (relative stereo), the melting point was 162 to 163 °C.

In turn, `CC(=O)Oc1ccc(CCc2ccc(OC(C)=O)cc2)cc1` showed a melting point of 115 to 116 °C.

The compound `O=C(N[C@H]1CCC(=O)N2CCC[C@@H](C(=O)O)N2C1=O)OCC1c2ccccc2-c2ccccc21` yielded a melting point of 120 to 126 °C.

With `Cc1cc(CC=CCO)c(O)c2c1NC(=O)C2(C)C`, the melting point worked out at 174 °C.

`Cc1ccc(C(=O)Nc2ccc3ccc(Cl)nc3n2)s1` had a melting point of 220 °C.

Turning to `Cc1c[nH]c2c(/C=C/C#N)cccc12`, the melting point was in the range of 225 to 227 °C.

In turn, `CS(=O)(=O)c1ccc(-c2cc(CCCO[N+](=O)[O-])nn2CC2CCCCC2)cc1` had a melting point of 76 to 77 °C.

Take `CNCCCCCCCCCCCO`: the melting point worked out at 58 °C.

As for `O=C(/C=C/c1ccc(C(=O)Nc2cccc(Nc3nc(-c4cccnc4)cs3)c2)s1)NOC1CCCCO1` (stereo unspecified), the melting point stood at 170 °C.
